Assay results published in ChEMBL document CHEMBL1201862, “PubChem BioAssay data set” (2004).
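Exposure lasted 48 hours, with cells grown in 96-well plates and compounds tested at five concentrations. The concentration for 50% growth inhibition is given as GI50.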 Active and inactive are the calls of the source. Cut-off read from the data, not from the text of the source: active = GI50 up to about 1.1 µM and inactive = higher.

What was measured:
Experiment in all cases: inhibition of tumour cell growth, NCI panel, 48 h
[1] = tested on: 786-0
[2] = tested on: A498
[3] = tested on: A549
[4] = tested on: ACHN
[5] = tested on: CAKI-1
[6] = tested on: CCRF-CEM
[7] = tested on: COLO 205
[8] = tested on: DLD-1
[9] = tested on: DMS-114
[10] = tested on: DMS-273
[11] = tested on: EKVX
[12] = tested on: HCC 2998
[13] = tested on: HCT-116
[14] = tested on: HCT-15
[15] = tested on: HL-60
[16] = tested on: HOP-18
[17] = tested on: HOP-62
[18] = tested on: HOP-92
[19] = tested on: HT-29
[20] = tested on: IGROV-1
[21] = tested on: K562
[22] = tested on: KM-20L2
[23] = tested on: KM12
[24] = tested on: LOX IMVI
[25] = tested on: LXFL 529
[26] = tested on: M14
[27] = tested on: M19-MEL
[28] = tested on: MCF7
[29] = tested on: MOLT-4
[30] = tested on: Malme-3M
[31] = tested on: NCI-H226
[32] = tested on: NCI-H23
[33] = tested on: NCI-H460
[34] = tested on: NCI-H522
[35] = tested on: OVCAR-3
[36] = tested on: OVCAR-4
[37] = tested on: OVCAR-5
[38] = tested on: OVCAR-8
[39] = tested on: RXF 393
[40] = tested on: RXF 631
[41] = tested on: SF-268
[42] = tested on: SF-295
[43] = tested on: SF-539
[44] = tested on: SK-MEL-28
[45] = tested on: SK-MEL-2
[46] = tested on: SK-MEL-5
[47] = tested on: SK-OV-3
[48] = tested on: SN12C
[49] = tested on: SNB-19
[50] = tested on: SNB-75
[51] = tested on: SNB-78
[52] = tested on: SR
[53] = tested on: SW-620
[54] = tested on: TK-10
[55] = tested on: U-251
[56] = tested on: UACC-257
[57] = tested on: UACC-62
[58] = tested on: UO-31
[59] = tested on: XF498
[60] = tested on: RPMI-8226

COc1cccc2c1C(=O)c1c(O)c3c(c(O)c1C2=O)C[C@@](O)(C(C)O)C[C@@H]3OC1CC(N)C(O)C(C)O1 (some centres undefined)
GI50 [1]: 0.644 µM (active)
GI50 [2]: 2.18 µM (inactive)
GI50 [3]: 0.946 µM (active)
GI50 [4]: 1.51 µM (inactive)
GI50 [5]: 0.408 µM (active)
GI50 [6]: 0.148 µM (active)
GI50 [7]: 1.41 µM (inactive)
GI50 [8]: 2.99 µM (inactive)
GI50 [9]: 0.163 µM (active)
GI50 [10]: 0.569 µM (active)
GI50 [11]: 1.18 µM (inactive)
GI50 [12]: 1.68 µM (inactive)
GI50 [13]: 0.805 µM (active)
GI50 [14]: 8.28 µM
GI50 [15]: 0.171 µM (active)
GI50 [16]: 0.00497 µM (active)
GI50 [17]: 0.861 µM (active)
GI50 [18]: 0.502 µM (active)
GI50 [19]: 2.21 µM (inactive)
GI50 [20]: 2.2 µM (inactive)
GI50 [21]: 1.12 µM (active)
GI50 [22]: 3.24 µM (inactive)
GI50 [23]: 2.24 µM (inactive)
GI50 [24]: 0.524 µM (active)
GI50 [25]: 1.02 µM (active)
GI50 [26]: 3.02 µM (inactive)
GI50 [27]: 1.16 µM (inactive)
GI50 [28]: 0.738 µM (active)
GI50 [29]: 0.105 µM (active)
GI50 [30]: 0.491 µM (active)
GI50 [31]: 0.607 µM (active)
GI50 [32]: 0.553 µM (active)
GI50 [33]: 0.329 µM (active)
GI50 [34]: 0.57 µM (active)
GI50 [35]: 2.4 µM (inactive)
GI50 [36]: 4.99 µM (inactive)
GI50 [37]: 3.3 µM (inactive)
GI50 [38]: 1.14 µM (inactive)
GI50 [39]: 1.47 µM (inactive)
GI50 [40]: 2 µM (inactive)
GI50 [41]: 1.05 µM (active)
GI50 [42]: 1.26 µM (inactive)
GI50 [43]: 0.869 µM (active)
GI50 [44]: 1.42 µM (inactive)
GI50 [45]: 1.41 µM (inactive)
GI50 [46]: 0.834 µM (active)
GI50 [47]: 2.72 µM (inactive)
GI50 [48]: 0.993 µM (active)
GI50 [49]: 0.883 µM (active)
GI50 [50]: 0.00982 µM (active)
GI50 [51]: 1.88 µM (inactive)
GI50 [52]: 0.16 µM (active)
GI50 [53]: 1.05 µM (active)
GI50 [54]: 2.5 µM (inactive)
GI50 [55]: 0.885 µM (active)
GI50 [56]: 1.42 µM (inactive)
GI50 [57]: 1.34 µM (inactive)
GI50 [58]: 38.5 µM (inactive)
GI50 [59]: 0.614 µM (active)

C[C@@H]1[C@H](c2ccccc2)O[B-]2(c3ccc(Br)cc3)OC(=O)C[N+]12C (some centres undefined)
GI50 [1]: > 100 µM (inactive)
GI50 [2]: > 100 µM (inactive)
GI50 [3]: > 100 µM (inactive)
GI50 [4]: 86.9 µM (inactive)
GI50 [5]: 53.3 µM (inactive)
GI50 [6]: > 100 µM (inactive)
GI50 [7]: > 100 µM (inactive)
GI50 [8]: > 100 µM (inactive)
GI50 [9]: > 100 µM (inactive)
GI50 [11]: > 100 µM (inactive)
GI50 [12]: > 100 µM (inactive)
GI50 [13]: > 100 µM (inactive)
GI50 [14]: > 100 µM
GI50 [15]: 24.9 µM (inactive)
GI50 [16]: > 100 µM (inactive)
GI50 [17]: > 100 µM (inactive)
GI50 [18]: 44.3 µM (inactive)
GI50 [19]: > 100 µM (inactive)
GI50 [20]: > 100 µM (inactive)
GI50 [21]: 98.9 µM (inactive)
GI50 [22]: > 100 µM (inactive)
GI50 [23]: > 100 µM (inactive)
GI50 [24]: > 100 µM (inactive)
GI50 [25]: 86.5 µM (inactive)
GI50 [26]: > 100 µM (inactive)
GI50 [27]: > 100 µM (inactive)
GI50 [29]: 86.5 µM (inactive)
GI50 [30]: > 100 µM (inactive)
GI50 [32]: > 100 µM (inactive)
GI50 [33]: > 100 µM (inactive)
GI50 [34]: > 100 µM (inactive)
GI50 [36]: > 100 µM (inactive)
GI50 [37]: > 100 µM (inactive)
GI50 [38]: > 100 µM (inactive)
GI50 [60]: > 100 µM (inactive)
GI50 [39]: 26.5 µM (inactive)
GI50 [40]: > 100 µM (inactive)
GI50 [41]: 94.2 µM (inactive)
GI50 [42]: > 100 µM (inactive)
GI50 [43]: > 100 µM (inactive)
GI50 [44]: 0.1 µM (active)
GI50 [45]: > 100 µM (inactive)
GI50 [46]: > 100 µM (inactive)
GI50 [47]: > 100 µM (inactive)
GI50 [48]: > 100 µM (inactive)
GI50 [49]: > 100 µM (inactive)
GI50 [50]: 5.3 µM (inactive)
GI50 [51]: 35.4 µM (inactive)
GI50 [52]: > 100 µM (inactive)
GI50 [53]: > 100 µM (inactive)
GI50 [55]: > 100 µM (inactive)
GI50 [56]: > 100 µM (inactive)
GI50 [57]: > 100 µM (inactive)
GI50 [58]: 66.5 µM (inactive)
GI50 [59]: 97.1 µM (inactive)
